We go through four molecules from patent US4692443A, “3-bicyclicpyridinium-methyl cephalosporins” (Eli Lilly and Company, priority 1984, dated 1987).

One data set has as its system E. coli TEM. As to the kind of experiment: standard in vitro agar dilution assay (MIC). Format: cell-based. Particulars: Escherichia coli; E. coli strain TEM; read-out: Agar Dilution MIC. For orientation: Agar dilution tests growth on a series of plates holding different concentrations.
The next data set concerns Pseudomonas X239. Put plainly: standard in vitro agar dilution assay (MIC). Format: cell-based. Particulars: Pseudomonas strain X239.
The subject of the next data set is Enterobacter cloacae EB5. Put plainly: standard in vitro agar dilution assay (MIC). Format: cell-based.
The test system of a further data set is Staph. epi EPI1. As to the kind of experiment: standard in vitro agar dilution assay (MIC). Particulars: Staph. epi strain EPI1. In kind it is cell-based.
Another data set relates to Klebsiella X26. Put plainly: standard in vitro agar dilution assay (MIC). In kind it is cell-based. Particulars: Klebsiella strain X26; read-out: Agar Dilution MIC.
The subject of the next data set is Staph. aureus V41. Put plainly: standard in vitro agar dilution assay (MIC). Particulars: Staphylococcus aureus; Staph. aureus strain V41; read-out: Agar Dilution MIC. In kind it is cell-based.
The test system of data set [1] is Enterobacter aerogenes C32. Put plainly: standard in vitro agar dilution assay (MIC). The settings on record: Klebsiella aerogenes. Format: cell-based.
Another data set concerns Strep. A C203. As to the kind of experiment: standard in vitro agar dilution assay (MIC). In kind it is cell-based. Particulars: Strep. A strain C203.
A further data set concerns E. coli N10. Put plainly: standard in vitro agar dilution assay (MIC). Format: cell-based. Particulars: Escherichia coli, N10, read-out: Agar Dilution MIC.
A further data set has as its system Strep. D X66. Put plainly: standard in vitro agar dilution assay (MIC). The settings on record: Strep. D strain X66. Format: cell-based.
Another data set concerns Serratia X99. As to the kind of experiment: standard in vitro agar dilution assay (MIC). Format: cell-based.
The next data set concerns Staph. epi 222. As to the kind of experiment: standard in vitro agar dilution assay (MIC). Format: cell-based. The settings on record: Staph. epi strain 222.
In a further data set the test system is Pseudomonas X528. As to the kind of experiment: standard in vitro agar dilution assay (MIC). Particulars: Pseudomonas strain X528. In kind it is cell-based. From the text: The antibacterial activity of several representative compounds of the invention has been evaluated in standard in vitro agar dilution assays. The following Table presents typical minimum inhibitory concentrations (MIC's) in μg /ml for exemplary compounds when evaluated against typical Gram + and Gram - microorganism.

The next data set concerns Strep. D 9960. Put plainly: standard in vitro agar dilution assay (MIC). Format: cell-based. Particulars: Strep. D strain 9960.
The subject of the next data set is Klebsiella KAE. As to the kind of experiment: standard in vitro agar dilution assay (MIC). Format: cell-based. Particulars: Klebsiella strain KAE; read-out: Agar Dilution MIC.
In a further data set the test system is Strep. PN PARK. Put plainly: standard in vitro agar dilution assay (MIC). In kind it is cell-based. The settings on record: Strep. PN strain PARK.
The next data set concerns Staph. aureus X400. As to the kind of experiment: standard in vitro agar dilution assay (MIC). In kind it is cell-based. The settings on record: Staphylococcus aureus; Staph. aureus strain X400.
In another data set the test system is Staph. aureus S13E. As to the kind of experiment: microbe, parasite or virus in culture. In kind it is cell-based. Particulars: Staphylococcus aureus, read-out: Agar Dilution MIC.
A further data set relates to H. influ. 76. Put plainly: standard in vitro agar dilution assay (MIC). In kind it is cell-based. Particulars: read-out: Agar Dilution MIC.
A further data set has as its system Salmonella X514. As to the kind of experiment: standard in vitro agar dilution assay (MIC). In kind it is cell-based. Particulars: Salmonella strain X514; read-out: Agar Dilution MIC.
For the next data set, the system named is H. influ. C.L. Put plainly: standard in vitro agar dilution assay (MIC). Particulars: read-out: Agar Dilution MIC. In kind it is cell-based.
In a further data set the test system is Klebsiella X68. As to the kind of experiment: standard in vitro agar dilution assay (MIC). In kind it is cell-based.
The test system of the next data set is Staph. aureus X1.1. As to the kind of experiment: standard in vitro agar dilution assay (MIC). In kind it is cell-based. The settings on record: Staphylococcus aureus; Staph. aureus strain X1.1; read-out: Agar Dilution MIC.
Another data set is described as follows: Titration (pKa). In kind it is physicochemical. Particulars: 66% dimethylformamide in water v/v. From the text: Titration (66% dimethylformamide in water v/v) pKa at 4.0, 7.4, 10.7.
Setting [2] is: Enterobacter cloacae, EB5, read-out: Agar Dilution MIC.
[3] abbreviates: Serratia, X99, read-out: Agar Dilution MIC.

≈ marks a conversion by molar mass, not a printed value. Like-named read-outs stand apart in the source and are kept apart here.

Consider `CO/N=C(\C(=O)NC1C(=O)N2C(C(=O)[O-])=C(C[n+]3cccc4oc(N)nc43)CSC12)c1csc(N)n1` (stereo not drawn) [Example 10, syn-7-[2-(2-aminothiazol-4-yl)-2-methoxyiminoacetamido]-3-(2-aminooxazolo[4,5-b]pyridinium-4-ylmethyl)-3-cephem-4-carboxylate], for which the MIC stood at 0.03 µg/mL (≈ 0.0565 µM) with E. coli TEM; 2 µg/mL (≈ 3.77 µM) in the data set on Pseudomonas X239; 0.25 µg/mL (≈ 0.471 µM) in the data set on Enterobacter cloacae EB5 (setting [2]); 2 µg/mL (≈ 3.77 µM) in the data set with Staph. epi EPI1; 0.03 µg/mL (≈ 0.0565 µM) in the data set on Klebsiella X26; 4 µg/mL (≈ 7.54 µM) with Staph. aureus V41. The MIC in data set [1] (Enterobacter aerogenes strain C32, read-out: Agar Dilution MIC) was 0.125 µg/mL (≈ 0.236 µM); against Strep. A C203, 0.015 µg/mL (≈ 0.0283 µM); in the data set with E. coli N10, 0.125 µg/mL (≈ 0.236 µM); in the data set with Strep. D X66, > 128 µg/mL; in the data set on Serratia X99 (setting [3]), 0.125 µg/mL (≈ 0.236 µM); with Staph. epi 222, 1 µg/mL (≈ 1.88 µM). The MIC in the data set with Pseudomonas X528 was found to be 4 µg/mL (≈ 7.54 µM); in the data set on Strep. D 9960, 16 µg/mL (≈ 30.2 µM); with Klebsiella KAE it was 4 µg/mL (≈ 7.54 µM); against Strep. PN PARK, 0.015 µg/mL (≈ 0.0283 µM); in the data set on Staph. aureus X400, 32 µg/mL (≈ 60.3 µM); in the data set on Staph. aureus S13E, 4 µg/mL (≈ 7.54 µM). Moreover, in the data set with H. influ. 76, the MIC was found to be 0.125 µg/mL (≈ 0.236 µM).

For `CO/N=C(\C(=O)NC1C(=O)N2C(C(=O)[O-])=C(C[n+]3ccc4nc(C(C)(C)C)sc4c3)CSC12)c1csc(N)n1` (stereo not drawn) [Example 17, syn-7-[2-(2-aminothiazol-4-yl)-2-methoxyiminoacetamido]-3-(2-tert.-butylthiazolo[5,4-c]pyridinium-5-ylmethyl)-3-cephem-4-carboxylate], the MIC came out at 0.5 µg/mL (≈ 0.851 µM) with Salmonella X514; 1 µg/mL (≈ 1.7 µM) with Enterobacter cloacae EB5 (Enterobacter cloacae strain EB5, read-out: Agar Dilution MIC); 0.25 µg/mL (≈ 0.425 µM) in the data set with H. influ. C.L.; 4 µg/mL (≈ 6.81 µM) in the data set with Staph. epi EPI1; 4 µg/mL (≈ 6.81 µM) in the data set on Staph. aureus V41; 0.5 µg/mL (≈ 0.851 µM) in data set [1] (C32, read-out: Agar Dilution MIC). Besides, the MIC against Strep. A C203 is 0.015 µg/mL (≈ 0.0255 µM); in the data set with E. coli N10 it was 0.5 µg/mL (≈ 0.851 µM); in the data set on Strep. D X66, > 128 µg/mL; with Serratia X99 (Serratia strain X99, read-out: Agar Dilution MIC), 1 µg/mL (≈ 1.7 µM); against Staph. epi 222, 1 µg/mL (≈ 1.7 µM); with Strep. D 9960, 4 µg/mL (≈ 6.81 µM). In addition, the MIC was found to be 4 µg/mL (≈ 6.81 µM) with Klebsiella KAE; 0.015 µg/mL (≈ 0.0255 µM) with Strep. PN PARK; 0.5 µg/mL (≈ 0.851 µM) in the data set with Klebsiella X68 (Klebsiella, X68, read-out: Agar Dilution MIC); 32 µg/mL (≈ 54.4 µM) with Staph. aureus X400; 8 µg/mL (≈ 13.6 µM) with Staph. aureus S13E; 0.125 µg/mL (≈ 0.213 µM) with H. influ. 76. For the same molecule, the MIC in the data set with Staph. aureus X1.1 turned out to be 1 µg/mL (≈ 1.7 µM).

On to `CO/N=C(\C(=O)N[C@@H]1C(=O)N2C(C(=O)[O-])=C(C[n+]3cccc4nc(N)sc43)CS[C@H]12)c1csc(N)n1` [Example 15, syn-7-[2-(2-aminothiazol-4-yl)-2-methoxyiminoacetamido]-3-(2-aminothiazolo[5,4-b]pyridinium-4-ylmethyl)-3-cephem-4-carboxylate], for which the MIC against Pseudomonas X239 is 2 µg/mL (≈ 3.66 µM); in the data set with Staph. epi EPI1, 2 µg/mL (≈ 3.66 µM); in the data set with Staph. aureus V41, 2 µg/mL (≈ 3.66 µM); against Strep. A C203 it was 0.015 µg/mL (≈ 0.0274 µM); with Staph. epi 222, 16 µg/mL (≈ 29.3 µM); in the data set on Pseudomonas X528, 1 µg/mL (≈ 1.83 µM). The MIC was found to be 8 µg/mL (≈ 14.6 µM) against Strep. D 9960; 4 µg/mL (≈ 7.32 µM) in the data set with Klebsiella X68 (Klebsiella strain X68, read-out: Agar Dilution MIC); 4 µg/mL (≈ 7.32 µM) in the data set on Staph. aureus S13E. Besides, in “Titration (pKa)”, the “pKa (second)” value worked out at 7.4. Also, in “Titration (pKa)”, the “pKa (third)” value stood at 10.7. For the same molecule, in the data set “Titration (pKa)” (read-out: pKa (first)), the pKa was 4.

For `CO/N=C(\C(=O)NC1C(=O)N2C(C(=O)[O-])=C(C[n+]3ccc4nc(C)sc4c3)CSC12)c1csc(N)n1` (stereo not drawn) [Example 16, syn-7-[2-(2-aminothiazol-4-yl)-2-methoxyiminoacetamido]-3-(2-methylthiazolo[5,4-c]pyridinium-5-ylmethyl)-3-cephem-4-carboxylate], the MIC with Salmonella X514 was 0.03 µg/mL (≈ 0.055 µM); in the data set with Pseudomonas X239 it was 4 µg/mL (≈ 7.33 µM); in the data set on Enterobacter cloacae EB5 (setting [2]), 0.125 µg/mL (≈ 0.229 µM); in the data set on Staph. epi EPI1, 2 µg/mL (≈ 3.67 µM); in the data set with Staph. aureus V41, 4 µg/mL (≈ 7.33 µM); with Strep. A C203 it was 0.015 µg/mL (≈ 0.0275 µM). For the same molecule, the MIC is > 128 µg/mL against Strep. D X66; 0.125 µg/mL (≈ 0.229 µM) in the data set with Serratia X99 (setting [3]); 1 µg/mL (≈ 1.83 µM) in the data set with Staph. epi 222; 8 µg/mL (≈ 14.7 µM) against Pseudomonas X528; 8 µg/mL (≈ 14.7 µM) in the data set on Strep. D 9960; 1 µg/mL (≈ 1.83 µM) in the data set with Klebsiella KAE. Further, the MIC with Staph. aureus X400 stood at 8 µg/mL (≈ 14.7 µM); in the data set with Staph. aureus S13E it was 4 µg/mL (≈ 7.33 µM); with H. influ. 76 (H. influ. strain 76) it was 0.015 µg/mL (≈ 0.0275 µM); in the data set on Staph. aureus X1.1 it was 1 µg/mL (≈ 1.83 µM).

One may read the pKa as the pH at which an ionisable group is half protonated.
